Assay results published in US20240158446A1, “CYCLIC COMPOUND HAVING SELECTIVE INHIBITORY ACTION ON KRAS OVER HRAS AND NRAS” (CHUGAI SEIYAKU KABUSHIKI KAISHA, priority 2021, published 2024).

Assays:
[1] = tested on: human lung cancer strain NCI-H441;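 note: cell proliferation inhibition after four days measured by CellTiter-Glo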
[2] = target: GDP-bound NRAS wild-type protein (Homo sapiens, UniProt P01111); assay: Binding to NRAS by surface plasmon resonance (SPR), Single Cycle Kinetics; conditions: SPR, GDP-bound NRAS wild-type protein vs GDP-bound KRAS wild-type protein
GDP-bound NRAS wild-type protein, sequence (P01111 whole entry): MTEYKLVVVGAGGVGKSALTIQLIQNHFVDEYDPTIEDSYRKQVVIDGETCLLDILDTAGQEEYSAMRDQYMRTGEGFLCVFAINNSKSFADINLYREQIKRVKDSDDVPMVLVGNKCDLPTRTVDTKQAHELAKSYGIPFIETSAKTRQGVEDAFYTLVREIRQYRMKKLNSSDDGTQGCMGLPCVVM

[3] = target: GDP-bound HRAS wild-type protein (Homo sapiens, UniProt P01112); assay: Binding to HRAS by surface plasmon resonance (SPR), Single Cycle Kinetics; conditions: SPR, GDP-bound HRAS wild-type protein vs GDP-bound KRAS wild-type protein
GDP-bound HRAS wild-type protein, sequence (P01112 whole entry): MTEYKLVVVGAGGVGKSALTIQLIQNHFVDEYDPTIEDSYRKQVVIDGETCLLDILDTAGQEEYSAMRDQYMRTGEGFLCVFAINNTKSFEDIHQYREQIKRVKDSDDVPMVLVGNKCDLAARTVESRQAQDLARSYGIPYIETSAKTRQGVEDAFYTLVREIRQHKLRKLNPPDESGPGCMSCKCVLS

[4] = target: GDP-bound KRAS wild-type protein (Homo sapiens, UniProt P01116); assay: Binding to KRAS by surface plasmon resonance (SPR), Single Cycle Kinetics; conditions: SPR, Single Cycle Kinetics, GDP-bound KRAS wild-type protein; read-out: KRAS KD
GDP-bound KRAS wild-type protein, sequence (P01116 whole entry): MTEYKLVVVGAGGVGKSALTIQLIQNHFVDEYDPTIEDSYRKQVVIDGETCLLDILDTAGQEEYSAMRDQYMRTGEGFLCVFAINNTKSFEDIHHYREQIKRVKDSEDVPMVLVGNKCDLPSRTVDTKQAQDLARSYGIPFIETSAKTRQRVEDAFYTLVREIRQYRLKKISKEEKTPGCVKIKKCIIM

IC50 [1] [nM]	Kd [4] [nM]	Structure (SMILES)	NRAS/KRAS (ratio of KD value for NRAS to KD value for KRAS) [2]	HRAS/KRAS (ratio of KD value for HRAS to KD value for KRAS) [3]
33.6	1.6	CCO[C@@H]1C[C@H]2C(=O)NC3(CC(C)(C)C3)C(=O)N(C)[C@@H](C(CC)CC)C(=O)N(C)[C@H](C(=O)N(C)C)CC(=O)N(C)[C@@H](C(C)C)C(=O)N[C@@H]([C@@H](C)CC)C(=O)N(C)CC(=O)N(C)[C@H]3C/C=C\CCN(C3=O)[C@@H](CC3CCC(F)(F)CC3)C(=O)N(C)CC(=O)N[C@@H](CCc3cc(F)c(C(F)(F)F)c(F)c3)C(=O)N2C1 [PP2481]	A (a compound having 10 or more and less than 20 is denoted as A)	A (a compound having 10 or more and less than 20 is denoted as A)
23.8	0.93	CCC[C@H]1C(=O)N[C@@H]([C@@H](C)CC)C(=O)N(C)CC(=O)N(C)[C@H]2C/C=C\CCN(C2=O)[C@@H](CC2CCC(F)(F)CC2)C(=O)N(C)CC(=O)N[C@@H](CCc2ccc(C(F)(F)F)c(OC)c2)C(=O)N2C[C@H](OCC)C[C@H]2C(=O)NC2(CC(C)(C)C2)C(=O)N(C)[C@@H](C(CC)CC)C(=O)N(C)[C@H](C(=O)N(C)C)CC(=O)N1C [PP2482]	A (a compound having 10 or more and less than 20 is denoted as A)	A (a compound having 10 or more and less than 20 is denoted as A)
195	1.6	CCCOC[C@H]1C(=O)N[C@@H]([C@@H](C)CC)C(=O)N(C)CC(=O)N(C)[C@H]2C/C=C\CCN(C2=O)[C@@H](CC2CCC(F)(F)CC2)C(=O)N(C)CC(=O)N[C@@H](CCc2ccc(C(F)(F)F)c(OC)c2)C(=O)N2C[C@@H](C)C[C@H]2C(=O)NC2(CC(C)(C)C2)C(=O)N(C)[C@@H](C(CC)CC)C(=O)N(C)[C@H](C(=O)N(C)C)CC(=O)N1C [PP2483]	A (a compound having 10 or more and less than 20 is denoted as A)	A (a compound having 10 or more and less than 20 is denoted as A)

More lines, now with the values behind:

Structure (SMILES)	IC50 [1] [nM]	Kd [4] [nM]	NRAS/KRAS (ratio of KD value for NRAS to KD value for KRAS) [2]	HRAS/KRAS (ratio of KD value for HRAS to KD value for KRAS) [3]
CCO[C@@H]1C[C@H]2C(=O)NC3(CC(C)(C)C3)C(=O)N(C)[C@@H](C(CC)CC)C(=O)N(C)[C@H](C(=O)N(C)C)CC(=O)N(C)[C@@H](C(C)C)C(=O)N[C@@H]([C@@H](C)CC)C(=O)N(C)CC(=O)N(C)[C@H]3C/C=C\CCN(C3=O)[C@@H](CC3CCC(F)(F)CC3)C(=O)N(C)CC(=O)N[C@@H](CCc3ccc(C(F)(F)F)c(OC)c3)C(=O)N2C1 [PP2477]	127	1.8	A (a compound having 10 or more and less than 20 is denoted as A)	A (a compound having 10 or more and less than 20 is denoted as A)
CCOC[C@H]1C(=O)N[C@@H]([C@@H](C)CC)C(=O)N(C)CC(=O)N(C)[C@H]2C/C=C\CCN(C2=O)[C@@H](CC2CCCCC2)C(=O)N(C)CC(=O)N[C@@H](CCc2cc(F)c(C(F)(F)F)c(F)c2)C(=O)N2C[C@H](OCC)C[C@H]2C(=O)NC2(CC(C)(C)C2)C(=O)N(C)[C@@H](C(CC)CC)C(=O)N(C)[C@H](C(=O)N(C)C)CC(=O)N1C [PP2479]	26	1.4	AA (a compound having 20 or more is denoted as AA)	A (a compound having 10 or more and less than 20 is denoted as A)
CCO[C@@H]1C[C@H]2C(=O)NC3(CC(C)(C)C3)C(=O)N(C)[C@@H](C(CC)CC)C(=O)N(C)[C@H](C(=O)N(C)C)CC(=O)N(C)[C@@H](CC3CC3)C(=O)N[C@@H]([C@@H](C)CC)C(=O)N(C)CC(=O)N(C)[C@H]3C/C=C\CCN(C3=O)[C@@H](CC3CCC(F)(F)CC3)C(=O)N(C)CC(=O)N[C@@H](CCc3ccc(C(F)(F)F)c(OC)c3)C(=O)N2C1 [PP2480]	30.5	0.84	A (a compound having 10 or more and less than 20 is denoted as A)	A (a compound having 10 or more and less than 20 is denoted as A)
